Laboratory results as given in patent publication US9346846B1, “Anti-cancer compounds and methods for treating cancer” (YALE UNIVERSITY, priority 2013, dated 2016).
Entries after “also recorded” stand apart in the source; their conditions may differ.

How the values were obtained:
Assay type in all cases: cell-based
[1] = test system: DDR-deficient cancer cells (BRCA2, pten, KU80 and DNApk); assay: Chronogenic survival assay in DNA damage response deficient cancer cell lines
Method: (§1) A number of cancer cells lines were tested for effectness of (−)-lomaiviticin A or MK7-206. These cell lines are DNA damage response deficient cells (DDR-deficient cancer cells, indicated in FIGS. 16-24) or hypoxic cells (indicated in FIG. 25). The indicated cells were seeded at 500 cells per well in 6-23ll dishes and treated with various concentrations of (−)-lomaiviticin A at the indicated concentrations indicated in FIGS. 16-25 for a period of 24 hours, after which time the media containing the inhibitor was removed and replaced with fresh media. Colonies were fixed with 0.9% saline solution and stained with crystal violet 8-14 days later. Colonies consistent of greater than 50 cells were counted. Experiments utilizing MK7-206 for the cell lines which are presented in attached FIG. 28 (Table 2) and FIG. 30 (Table 4) were also conducted (at higher concentrations than for (−)lomaiviticin A).

[2] = test system: pCHK2; assay: Western blotting of treated MCF7 cells, pCHK2; conditions: 24 hour treatment
Method: (§2) MCF-7 are seeded into 6-well dishes and treated with various doses of (−)-lomaiviticin A (LA), in the absence and presence of ionizing radiation (IR) at a dose rate of 2.4295 Gy/min (2 Gy, X-Ray) for 24 hour. After treatment, the cells were harvested for lysis in AZ lysis buffer ([…] Tris, 250 mM NaCl, 1% Igepal, 0.1% SDS, 5 mM EDTA, 10 mM Na4P2O7, 10 mM NaF) containing protease and phosphatase inhibitors. Western blotting was performed (FIG. 26).
(§3) Primary antibodies used were: mouse monoclonal anti-Ser1981-pATM (10H11.E12, Millipore, Temecula, Calif.), mouse monoclonal anti-vinculin (SPM227, Abcam, Cambridge, Mass.), rabbit polyclonal anti-Ser428-pATR (Cell Signaling, Danvers, Mass.), rabbit polyclonal anti-Thr68-pCHK2 (Cell Signaling), rabbit monoclonal anti-CHK2 (D9C6, Cell Signaling), rabbit monoclonal anti-Ser345-pCHK1 (Cell Signaling), and rabbit monoclonal anti-CHK1 (E250, Millipore).
(§4) Proteins were visualized with horseradish peroxidase-conjugated anti-mouse and anti-rabbit immunoglobulin G (Thermo Scientific, Rockford, Ill.) and the SuperSignal West Pico Chemiluminescent Substrate detection system (Thermo Scientific).

[3] = test system: pATM; assay: Western blotting of treated MCF7 cells, pATM; conditions: 24 hour treatment
Method: as §2, §3, §4

[4] = test system: hypoxic MCF7 cells; assay: Chronogenic survival assay in hypoxic versus normoxic MCF7 cells; conditions: hypoxia vs normoxia, 24 hours treatment
Method: as §1

[5] = test system: hypoxic A549 cells; assay: Chronogenic survival assay in hypoxic versus normoxic A549 cells; conditions: hypoxia vs normoxia, 24 hours treatment
Method: as §1

[6] = test system: pATR; assay: Western blotting of treated MCF7 cells, pATR; conditions: 24 hour treatment, listed as LA
Method: as §2, §3, §4

[7] = test system: pCHK1; assay: Western blotting of treated MCF7 cells, pCHK1; conditions: 24 hour treatment, listed as LA
Method: as §2, §3, §4

(−)-lomaiviticin A
sensitivity of DDR-deficient cells to the compound ([1]; DDR-deficient (BRCA2, pten, KU80, DNApk) cells, 24 hours treatment, colonies stained 8-14 days later): more sensitive; also recorded: particularly susceptible
efficacy against cell lines in which DNA damage repair systems are deficient or down regulated ([1]; FIGS. 27-30): excellent efficacy
change in pCHK2 (western blot) [2]: increase
change in pATM (western blot) [3]: increase
sensitivity of hypoxic cells compared with normoxic cells [4]: more sensitive
sensitivity of hypoxic cells compared with normoxic cells [5]: more sensitive
change in pATR (western blot) [6]: no increase
change in pCHK1 (western blot) [7]: no increase
